Experimental findings from US20130267474A1, “NOVEL PHYTOCHEMICALS FROM EXTRACTS OF MAPLE SYRUPS AND MAPLE TREES AND USES THEREOF” (UNIVERSITY OF RHODE ISLAND, priority 2010, published 2013) are described below.

The subject of test [1] is CCD-18Co (normal human colon fibroblasts). In words: MTS cytotoxicity / antiproliferative assay. As to conditions: Homo sapiens, CCD-18Co, 72 h. The class given is cell-based. How it is done: (§1) Cell lines included three human colon cancer cells: HT-29 (human colon adenocarcinoma), HCT116 (human colon carcinoma) and Caco-2 (human epithelial colorectal adenocarcinoma). In addition, normal human colon cells are included: CCD-^18Co (human colon fibroblasts). All cell lines are obtained from the American Type Culture Collection (ATCC, Rockville, Md., USA) and maintained at the University of Rhode Island.
(§2) The assay is carried out to measure the IC50 values for samples. […] Test samples and a positive control, etoposide 4 mg/mL (Sigma), are solubilized in DMSO by sonication. […] Control wells are also included on all plates. […] Each point on the curve is […]. Data (see tables 6 to 9) are expressed as mean±SE for three replications on each cell line.

Test [2] relates to HT-29 (human colon adenocarcinoma). As to the kind of experiment: MTS cytotoxicity / antiproliferative assay. The class given is cell-based. As to conditions: Homo sapiens. The procedure: as §1, §2
Test [3] concerns Caco-2 (human epithelial colorectal adenocarcinoma). As to the kind of experiment: MTS cytotoxicity / antiproliferative assay. As to conditions: Homo sapiens. The format is cell-based. The procedure:
as §1, §2

In test [4] the test system is HCT-116 (human colon carcinoma). As to the kind of experiment: MTS cytotoxicity / antiproliferative assay. As to conditions: Homo sapiens. The class given is cell-based. How it is done: as §1, §2
The nature of test [5]: DPPH radical scavenging (antioxidant) assay. The class given is biochemical. As to conditions: Table 10; mean ± standard deviation; 30 min, 515 nm; read-out: IC50 (μM), DPPH radical scavenging. How it is done: The DPPH radical scavenging activity of ascorbic acid (vitamin C) and the synthetic commercial antioxidant, butylated hydroxytoluene (BHT) are also assayed as positive controls (see Table 10). […] Absorbance is determined after 30 min at 515 nm, and the scavenging capacity (SC) is calculated as SC %=[(A0−A1/A0)]×100, where A0 is the absorbance of the reagent blank and A1 is the absorbance of the test samples. The control contained all reagents except the compounds, and all tests are performed in triplicate.
Absorbance is determined after 30 min at 515 nm, and the scavenging capacity (SC) is calculated as SC %=[(A0−A1/A0)]×100 where A0 is the absorbance of the reagent blank, and A1 is the absorbance with test samples. The control contained all reagents except the compounds and all tests are performed in triplicate.
In general terms: Loss of DPPH colour is used to gauge radical scavenging.

The test system of test [6] is colon cancer (HCT-116, Caco-2 and HT-29) cell lines. As to the kind of experiment: MTS antiproliferative assay, statements pooled over the colon cancer cell lines. Conditions: Homo sapiens, read-out: IC50 range, MTS assay, ginnalins, colon cell lines. Background: Tetrazolium dyes change colour on reduction, which living cells bring about.
[7] abbreviates: pure isolated compounds, read-out: Antiproliferative activity CCD-8Co 72 h (IC50).
The mark [8] stands for this setting: HT-29, 48 h, read-out: Antiproliferative activity HT-29 48 h (IC50), 48 h, pure isolated compounds.
Where [9] appears, read: HT-29, 72 h, 72 h, pure isolated compounds, read-out: Antiproliferative activity HT-29 72 h (IC50).
Where [10] appears, read: Caco-2, 48 h, read-out: Antiproliferative activity Caco-2 48 h (IC50), 48 h, pure isolated compounds.
[11] abbreviates: Caco-2, 72 h, 72 h, pure isolated compounds, read-out: Antiproliferative activity Caco-2 72 h (IC50).
Where [12] appears, read: HCT-116, 48 h, read-out: Antiproliferative activity HCT-116 48 h (IC50), 48 h, pure isolated compounds.
Setting [13] is: HCT-116, 72 h, 72 h, pure isolated compounds, read-out: Antiproliferative activity HCT-116 72 h (IC50).
[14] abbreviates: HCT-116, 72 h, 72 h, range given for the group, read-out: IC50 against HCT-116 cells at 72 h (activity ranking).
The mark [15] stands for this setting: Table 6 maple compounds, unit inferred, read-out: CCD-18Co 72 h(IC50).
Setting [16] is: HT-29, 48 h, read-out: HT-29 48 h(IC50), Table 6 maple compounds, 48 h, unit inferred.
The mark [17] stands for this setting: HT-29, 72 h, Table 6 maple compounds, 72 h, unit inferred, read-out: HT-29 72 h(IC50).
The mark [18] stands for this setting: Caco-2, 48 h, read-out: Caco-2 48 h(IC50), Table 6 maple compounds, 48 h, unit inferred.
Setting [19] is: Caco-2, 72 h, Table 6 maple compounds, 72 h, unit inferred, read-out: Caco-2 72 h(IC50).
The mark [20] stands for this setting: HCT-116, 48 h, read-out: HCT-116 48 h(IC50), Table 6 maple compounds, 48 h, unit inferred.
Setting [21] is: HCT-116, 72 h, Table 6 maple compounds, 72 h, unit inferred, read-out: HCT-116 72 h(IC50).

Values after ≈ are worked out from the molar mass of the structure shown. Where two headings read alike, the source gives them in different places.

With `COc1cc(CC(CO)C(CO)Cc2ccc(O)c(OC)c2)ccc1O` (stereo not drawn) [compound 2, secoisolariciresinol], the 50% inhibitory concentration (IC50) – broadly, the midpoint of a concentration-inhibition curve – came to 99.6 ± 4.9 µM in test [1] (setting [7]); 88.7 ± 2.2 µM in test [2] (setting [8]); 68.2 ± 1.4 µM in test [2] (setting [9]); 85 ± 3.8 µM in test [3] (setting [10]); 70.9 ± 2.3 µM in test [3] (setting [11]); 78 ± 2.3 µM in test [4] (setting [12]). For the same compound, the IC50 was 59.1 ± 1.5 µM in test [4] (setting [13]), 42 to 67 µM in test [4] (setting [14]) and 1540.9 ± 0.5 µM in test [5].
In the case of `COc1cc2ccc(=O)oc2cc1O` [compound 8, scopoletin], the IC50 turned out to be 103 µM in test [1] (setting [15]); 103 ± 5.9 µM in test [1] (setting [7]); 78.7 ± 1.2 µM in test [2] (setting [8]); 78.7 µM in test [2] (setting [16]); 70 ± 1.3 µM in test [2] (setting [9]); 70.2 µM in test [2] (setting [17]). The IC50 in test [3] (setting [10]) is 89.3 ± 0.9 µM; in test [3] (setting [18]), 89.3 µM; in test [3] (setting [11]), 82 ± 2 µM; in test [3] (setting [19]) it was 82 µM; in test [4] (setting [12]), 68.1 ± 1 µM; in test [4] (setting [20]) it was 68.1 µM. Further, the IC50 is 60.6 ± 2 µM in test [4] (setting [13]), 42 to 67 µM in test [4] (setting [14]), 60.6 µM in test [4] (setting [21]) and 655 ± 14.4 µM in test [5].
`O=C(OC[C@H]1OC[C@H](OC(=O)c2cc(O)c(O)c(O)c2)[C@@H](O)[C@@H]1O)c1cc(O)c(O)c(O)c1` [compound 70, 2,6-di-O-galloyl-1,5-anhydro-D-glucitol]: the IC50 was 90.6 µM in test [1] (setting [15]); 77 µM in test [2] (setting [16]); 51.6 µM in test [2] (setting [17]); 61.6 µM in test [3] (setting [18]); 46.5 µM in test [3] (setting [19]); 54.6 µM in test [4] (setting [20]). The results for the IC50 in test [4] (setting [21]) and in test [6] were 43.4 µM and 16 to 24 µg/mL (≈ 34.2 to 51.2 µM), respectively.
